From patent US9242970B2 (ACTELION PHARMACEUTICALS LTD., priority 2010, dated 2016) come the findings set out here.

One test has as its target human orexin-1 receptor (Homo sapiens (Human), UniProt O43613). In words: In vitro assay: intracellular calcium measurements (FLIPR), antagonistic activity. It counts as cell-based. To be noted: CHO cells, 3 nM orexin-A, compound incubation 120 min; marked values are geometric means of n = 2-6; read-out: IC50 OX1.
In another test the target is human orexin-2 receptor (Homo sapiens (Human), UniProt O43614). Described as above. It counts as cell-based. To be noted: CHO cells, 3 nM orexin-A, compound incubation 120 min; marked values are geometric means of n = 2-6; read-out: IC50 OX2.
Chain of human orexin-2 receptor (O43614 whole entry): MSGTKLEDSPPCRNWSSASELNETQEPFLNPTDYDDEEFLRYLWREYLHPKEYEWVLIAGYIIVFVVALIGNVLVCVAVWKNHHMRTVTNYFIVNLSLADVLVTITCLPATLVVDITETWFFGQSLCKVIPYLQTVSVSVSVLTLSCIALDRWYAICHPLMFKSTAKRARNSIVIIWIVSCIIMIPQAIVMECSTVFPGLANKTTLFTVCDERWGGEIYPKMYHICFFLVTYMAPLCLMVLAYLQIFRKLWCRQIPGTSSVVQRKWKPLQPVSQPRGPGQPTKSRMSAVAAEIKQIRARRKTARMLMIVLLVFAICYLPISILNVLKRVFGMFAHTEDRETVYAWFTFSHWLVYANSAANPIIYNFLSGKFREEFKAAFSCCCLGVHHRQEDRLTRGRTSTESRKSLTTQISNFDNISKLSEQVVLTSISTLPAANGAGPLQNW

Chain of human orexin-1 receptor (O43613 whole entry): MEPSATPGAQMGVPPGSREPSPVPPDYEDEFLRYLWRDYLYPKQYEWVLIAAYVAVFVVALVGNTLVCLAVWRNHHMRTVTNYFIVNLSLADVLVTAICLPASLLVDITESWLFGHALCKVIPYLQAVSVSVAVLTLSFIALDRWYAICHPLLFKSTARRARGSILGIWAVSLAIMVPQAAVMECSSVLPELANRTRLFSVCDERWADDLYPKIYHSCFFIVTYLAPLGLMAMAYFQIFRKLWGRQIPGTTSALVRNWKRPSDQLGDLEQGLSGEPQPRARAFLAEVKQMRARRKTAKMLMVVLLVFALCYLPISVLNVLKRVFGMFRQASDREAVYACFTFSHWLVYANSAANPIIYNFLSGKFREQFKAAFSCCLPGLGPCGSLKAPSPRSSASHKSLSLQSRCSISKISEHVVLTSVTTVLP

For the molecule `COc1cncc(OC)c1C1CCCC(=O)N1Cc1ccc2oc3ccccc3c2c1` (stereo not drawn) [Example 65, 1-(dibenzo[b,d]furan-2-ylmethyl)-6-(3,5-dimethoxypyridin-4-yl)piperidin-2-one], the IC50 – broadly, the midpoint of a concentration-inhibition curve – worked out at 6 nM at human orexin-1 receptor and 1 nM on human orexin-2 receptor.

For `COc1cncc(OC)c1C1CCCC(=O)N1Cc1cccc(-n2cccn2)n1` (stereo not drawn) [Example 66, 1-((6-(1H-pyrazol-1-yl)pyridin-2-yl)methyl)-6-(3,5-dimethoxypyridin-4-yl)piperidin-2-one], the values for the IC50 on human orexin-1 receptor and at human orexin-2 receptor were 3100 nM and 3700 nM, respectively.

In the case of `COc1cncc(OC)c1C1CCCC(=O)N1Cc1cccc(-n2nccn2)c1` (stereo not drawn) [Example 67, 1-(3-(2H-1,2,3-triazol-2-yl)benzyl)-6-(3,5-dimethoxypyridin-4-yl)piperidin-2-one], the IC50 on human orexin-1 receptor worked out at 163 nM; at human orexin-2 receptor, 156 nM.

Take `COc1cncc(OC)c1C1CCCC(=O)N1Cc1cccc(-c2ccccc2)c1` (stereo not drawn) [Example 68, 1-([1,1′-biphenyl]-3-ylmethyl)-6-(3,5-dimethoxypyridin-4-yl)piperidin-2-one]: the IC50 on human orexin-1 receptor was 45 nM; at human orexin-2 receptor, 31 nM.

As for `COc1cccc(OC)c1C1CCCC(=O)N1Cc1cnc(OC(F)F)c(C)c1` (stereo not drawn) [Example 69, 1-((6-(difluoromethoxy)-5-methylpyridin-3-yl)methyl)-6-(2,6-dimethoxyphenyl)piperidin-2-one], the IC50 at human orexin-1 receptor is 247 nM; at human orexin-2 receptor, 77 nM.

As for `COc1cccc(OC)c1C1CCCC(=O)N1Cc1csc(C)n1` (stereo not drawn) [Example 71, 6-(2,6-dimethoxyphenyl)-1-((2-methylthiazol-4-yl)methyl)piperidin-2-one], the IC50 at human orexin-1 receptor is more than 12600 nM; on human orexin-2 receptor it was 6190 nM.

`COc1cccc(OC)c1C1CCCCC(=O)N1Cc1cccc(-c2ccccc2)c1` (stereo not drawn) [Example 72, 1-([1,1′-biphenyl]-3-ylmethyl)-7-(2,6-dimethoxyphenyl)azepan-2-one]: the figures for the IC50 on human orexin-1 receptor and on human orexin-2 receptor were 3 nM and 12 nM, respectively.

On to `COc1cccc(OC)c1C1CCCCC(=O)N1Cc1ccc(Oc2ccccc2)cc1` (stereo not drawn) [Example 73, 7-(2,6-dimethoxyphenyl)-1-(4-phenoxybenzyl)azepan-2-one], for which the IC50 on human orexin-1 receptor turned out to be 186 nM; on human orexin-2 receptor, 187 nM.

In the case of `COc1cccc(OC)c1C1CCCCC(=O)N1Cc1cccc(Oc2ccccc2)c1` (stereo not drawn) [Example 74, 7-(2,6-dimethoxyphenyl)-1-(3-phenoxybenzyl)azepan-2-one], the IC50 at human orexin-1 receptor is 137 nM; on human orexin-2 receptor it was 98 nM.

For `COc1cccc(OC)c1C1CCCCC(=O)N1Cc1ccc2ccccc2c1` (stereo not drawn) [Example 75, 7-(2,6-dimethoxyphenyl)-1-(naphthalen-2-ylmethyl)azepan-2-one], the IC50 is 12 nM at human orexin-1 receptor and 32 nM on human orexin-2 receptor.

As to `COc1cccc(OC)c1C1CCCCC(=O)N1Cc1ccc(-c2ccccc2)cc1` (stereo not drawn) [Example 77, 1-([1,1′-biphenyl]-4-ylmethyl)-7-(2,6-dimethoxyphenyl)azepan-2-one], the IC50 on human orexin-1 receptor was found to be 305 nM; on human orexin-2 receptor, 188 nM.

With `COc1cccc(OC)c1C1CCCCC(=O)N1Cc1ccccc1-c1ccccc1` (stereo not drawn) [Example 78, 1-([1,1′-biphenyl]-2-ylmethyl)-7-(2,6-dimethoxyphenyl)azepan-2-one], the IC50 worked out at 323 nM on human orexin-1 receptor and 806 nM at human orexin-2 receptor.

Take `COc1cccc(OC)c1C1CCCCC(=O)N1Cc1ccc2ccccc2n1` (stereo not drawn) [Example 79, 7-(2,6-dimethoxyphenyl)-1-(quinolin-2-ylmethyl)azepan-2-one]: the IC50 at human orexin-1 receptor was 21 nM; at human orexin-2 receptor, 82 nM.

Consider `COc1cccc(OC)c1C1CCCCC(=O)N1Cc1cnc2ccccc2c1` (stereo not drawn) [Example 80, 7-(2,6-dimethoxyphenyl)-1-(quinolin-3-ylmethyl)azepan-2-one], for which the figures for the IC50 at human orexin-1 receptor and at human orexin-2 receptor were 715 nM and 1040 nM, respectively.

As to `COc1cccc(OC)c1C1CCCCC(=O)N1Cc1ccnc(-c2ccccc2)c1` (stereo not drawn) [Example 81, 7-(2,6-dimethoxyphenyl)-1-((2-phenylpyridin-4-yl)methyl)azepan-2-one], the IC50 at human orexin-1 receptor was found to be 7 nM; at human orexin-2 receptor, 58 nM.

Turning to `COc1cccc(OC)c1C1CCCCC(=O)N1Cc1cccc(-c2ccccc2)n1` (stereo not drawn) [Example 82, 7-(2,6-dimethoxyphenyl)-1-((6-phenylpyridin-2-yl)methyl)azepan-2-one], the IC50 at human orexin-1 receptor was 7 nM; at human orexin-2 receptor it was 26 nM.

In the case of `COc1cccc(OC)c1C1CCCCC(=O)N1Cc1cccc(-c2ncccn2)c1` (stereo not drawn) [Example 83, 7-(2,6-dimethoxyphenyl)-1-(3-(pyrimidin-2-yl)benzyl)azepan-2-one], the IC50 at human orexin-1 receptor turned out to be 3 nM; at human orexin-2 receptor it was 19 nM.

Turning to `COc1cccc(OC)c1C1CCCCC(=O)N1Cc1cccc(-c2ccccn2)c1` (stereo not drawn) [Example 84, 7-(2,6-dimethoxyphenyl)-1-(3-(pyridin-2-yl)benzyl)azepan-2-one], the IC50 at human orexin-1 receptor amounted to 3 nM; at human orexin-2 receptor, 7 nM.

As to `COc1cccc(OC)c1C1CCCCC(=O)N1Cc1cccc(-c2nccs2)c1` (stereo not drawn) [Example 85, 7-(2,6-dimethoxyphenyl)-1-(3-(thiazol-2-yl)benzyl)azepan-2-one], the results for the IC50 on human orexin-1 receptor and at human orexin-2 receptor were 2 nM and 3 nM, respectively.

In the case of `COc1cccc(OC)c1C1CCCCC(=O)N1Cc1ccc2c(c1)c1ccccc1n2C` (stereo not drawn) [Example 86, 7-(2,6-dimethoxyphenyl)-1-((9-methyl-9H-carbazol-3-yl)methyl)azepan-2-one], the IC50 amounted to 45 nM at human orexin-1 receptor and 71 nM on human orexin-2 receptor.

As for `COc1cccc(OC)c1C1CCCCC(=O)N1Cc1cccc(-c2cccnc2)c1` (stereo not drawn) [Example 87, 7-(2,6-dimethoxyphenyl)-1-(3-(pyridin-3-yl)benzyl)azepan-2-one], the IC50 at human orexin-1 receptor was found to be 21 nM; at human orexin-2 receptor, 46 nM.

As for `COc1cccc(OC)c1C1CCCCC(=O)N1Cc1cccc(N2CCCCC2)c1` (stereo not drawn) [Example 88, 7-(2,6-dimethoxyphenyl)-1-(3-(piperidin-1-yl)benzyl)azepan-2-one], the IC50 at human orexin-1 receptor turned out to be 12 nM; at human orexin-2 receptor it was 58 nM.

With `COc1cccc(OC)c1C1CCCCC(=O)N1Cc1cnc(OC(F)F)c(Cl)c1` (stereo not drawn) [Example 89, 1-((5-chloro-6-(difluoromethoxy)pyridin-3-yl)methyl)-7-(2,6-dimethoxyphenyl)azepan-2-one], the IC50 at human orexin-1 receptor came out at 385 nM; at human orexin-2 receptor it was 85 nM.

For the molecule `COc1cccc(OC)c1C1CCCCC(=O)N1Cc1ccc2oc3ccccc3c2c1` (stereo not drawn) [Example 90, 1-(dibenzo[b,d]furan-2-ylmethyl)-7-(2,6-dimethoxyphenyl)azepan-2-one], the half-inhibitory concentration (IC50) was found to be 1 nM at human orexin-1 receptor and 3 nM on human orexin-2 receptor.

As to `COc1cccc(OC)c1C1CCCCC(=O)N1Cc1cccc(-c2csc(C)n2)c1` (stereo not drawn) [Example 91, 7-(2,6-dimethoxyphenyl)-1-(3-(2-methylthiazol-4-yl)benzyl)azepan-2-one], the IC50 at human orexin-1 receptor was 1 nM; on human orexin-2 receptor it was 3 nM.

`COc1cccc(OC)c1C1CCCCC(=O)N1Cc1cncc(-c2ccccc2)c1` (stereo not drawn) [Example 92, 7-(2,6-dimethoxyphenyl)-1-((5-phenylpyridin-3-yl)methyl)azepan-2-one]: the values for the IC50 on human orexin-1 receptor and at human orexin-2 receptor were 1060 nM and 455 nM, respectively.

`COc1cccc(OC)c1C1CCCCC(=O)N1Cc1cccc(N2CCCC2)c1` (stereo not drawn) [Example 93, 7-(2,6-dimethoxyphenyl)-1-(3-(pyrrolidin-1-yl)benzyl)azepan-2-one]: the IC50 turned out to be 3 nM on human orexin-1 receptor and 16 nM at human orexin-2 receptor.
